Experimental findings from US20050090651A1, “Polymeric compounds” (AdProTech Limited Cesterford Research Park, Little …, priority 2001, published 2005) are described below.

A short description of the data set: Solubility of the lyophilised peptide. The data set is classed as physicochemical. The procedure:
The crude peptide was desalted via gel filtration (Sephadex G10, 0.1% TFA in water) before purification by preparative C18 Vydac) high performance liquid chromatography (HPLC) using 0.1% trifluoroacetic acid and 0.1% trifluoroacetic acid/90% acetonitrile as gradient components. After lyophilisation, the peptide was a white amorphous powder, soluble to at least 10 mg/mL in both dimethylsulfoxide and water. Fast atom bombardment spectrometry gave a main peak at 2101 amu corresponding to the molecular ion of the peptide.

By solubility is commonly meant how much of the substance goes into solution per volume. High values mean much dissolved substance, low ones little dissolved substance.

Where a SMILES comes first, the peptide text is derived from it. The star is where a group is joined. Myristoyl = CCCCCCCCCCCCCC(=O)*

Turning to `CCCCCCCCCCCCCC(=O)NCC(=O)N[C@@H](CO)C(=O)N[C@@H](CO)C(=O)N[C@@H](CCCCN)C(=O)N[C@@H](CO)C(=O)N1CCC[C@H]1C(=O)N[C@@H](CO)C(=O)N[C@@H](CCCCN)C(=O)N[C@@H](CCCCN)C(=O)N[C@@H](CC(=O)O)C(=O)N[C@@H](CC(=O)O)C(=O)N[C@@H](CCCCN)C(=O)N[C@@H](CCCCN)C(=O)N1CCC[C@H]1C(=O)NCC(=O)N[C@@H](CC(=O)O)C(=O)N[C@@H](CCCCNC(=O)[C@@H](N)CS)C(N)=O` [MSWP2278, Myristoyl-Gly-Ser-Ser-Lys-Ser-Pro-Ser-Lys-Lys-Asp-Asp-Lys-Lys-Pro-Gly-Asp-(ε-amino-cysteinyl carboxamide)-Lys-NH2] (Myristoyl-GSSKSPSKKDDKKPGDK(Cys)-NH2), the solubility is not below 10000 µg/mL (in dimethylsulfoxide) and not below 10000 µg/mL (in water).
